The text below walks through data of article PMC5618632, “In Vitro Glucuronidation of Wushanicaritin by Liver Microsomes, Intestine Microsomes and Expressed Human UDP-Glucuronosyltransferase Enzymes” (International Journal of Molecular Sciences, 2017).

One data set concerns the target T1, UGT2B7 (Homo sapiens, UniProt P16662).
T1 sequence (P16662 24-529): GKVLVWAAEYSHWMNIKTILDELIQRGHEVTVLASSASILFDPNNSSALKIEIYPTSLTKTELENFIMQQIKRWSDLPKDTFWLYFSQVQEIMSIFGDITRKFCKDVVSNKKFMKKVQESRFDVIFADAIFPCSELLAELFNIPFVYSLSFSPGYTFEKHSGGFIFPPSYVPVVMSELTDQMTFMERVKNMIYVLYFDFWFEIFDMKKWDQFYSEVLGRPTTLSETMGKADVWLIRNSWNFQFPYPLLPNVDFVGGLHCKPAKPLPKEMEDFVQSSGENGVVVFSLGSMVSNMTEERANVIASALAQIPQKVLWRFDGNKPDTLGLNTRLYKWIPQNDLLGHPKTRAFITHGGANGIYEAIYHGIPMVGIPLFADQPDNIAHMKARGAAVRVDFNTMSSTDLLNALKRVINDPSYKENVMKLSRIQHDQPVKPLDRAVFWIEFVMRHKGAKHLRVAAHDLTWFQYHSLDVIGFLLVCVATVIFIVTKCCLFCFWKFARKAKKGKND
Briefly: Glucuronidation by expressed UGT2B7. As for the experimental part:
(§1) The reaction was terminated by adding ice-cold acetonitrile. […] All experiments were performed in triplicate.
(§2) The gradient elution program was the same as the UPLC condition of the structural identification of wushanicaritin glucuronides above. The detection wavelength was set at 270 nm, and the injection volume was 8 µL.
(§3) The parameter were as follow. V is the formation rate of the product. Vmax is the maximal velocity. […] Ksi is the substrate inhibition constant. […] (1) V=Vmax ×[S]/Km+[S] (2) V=Vmax ×[S]/Km + [S](1+[S]/Ksi)
(§4) The contribution of individual expressed UGT enzymes to wushanicaritin glucuronidation in HLM was evaluated by the relative activity factor (RAF) approach as described in previous studies. The relative activity factor was defined as the activity ratio of HLM to an expressed UGT enzyme (Supersome) toward a probe substrate for this enzyme using Equation (3). The relative amount of wushanicaritin glucuronidation in HLM attributed to an expressed UGT enzyme was estimated by multiplying the glucuronidation activity (i.e., the intrinsic clearance) derived with this enzyme by the corresponding RAF. […] The contributions of individual UGT enzyme were calculated according to Equation (4). (3) RAF=CLint{probe,pHLM}/CLint{probe,Supersome} (4) Contribution of UGTs=CLint(wushanica ritin,UGTs)/CLint(wushanica ritin,pHLM)×RAF

Data set [1] can be described thus: Glucuronidation by pooled human liver microsomes (HLM), UDPGA-supplemented. The format is in vitro ADME. As for the experimental part: as §1, §3
On the technique in general: Liver microsomes are a subcellular fraction often used to study metabolism.

Data set [2] is described as follows: Glucuronidation by rabbit liver microsomes (RaLM). The format is in vitro ADME. The conditions noted are these: for Km: rabbit, liver microsomes, read-out: Km or S50. As for the experimental part:
as §1, §3

Data set [3] is described as follows: Glucuronidation by rat liver microsomes (RLM). The format is in vitro ADME. The conditions noted are these: for Km: rat, liver microsomes, read-out: Km or S50; for Ki: substrate inhibition constant. The procedure:
as §1, §3

Data set [4] is described as follows: Glucuronidation by human intestine microsomes (HIM). It is filed as in vitro ADME. The conditions noted are these: for Km: human, intestine microsomes, read-out: Km or S50. As for the experimental part: as §1, §3
Data set [5] in a line: Glucuronidation by guinea pig liver microsomes (GpLM). The format is in vitro ADME. The conditions noted are these: for Km: guinea pig, liver microsomes, read-out: Km or S50. The procedure:
as §1, §3

On the set-up of data set [6]: method as in PMID 21968061. The conditions noted are these: DPPH radical scavenging (antioxidant activity); cited from earlier work. Background: The DPPH test is a chemical assay of radical scavenging.
Data set [7] can be described thus: Glucuronidation by dog liver microsomes (DLM). The conditions noted are these: for Km: dog, liver microsomes, read-out: Km or S50; for Ki: substrate inhibition constant. The format is in vitro ADME. As for the experimental part: as §1, §3
The conditions of data set [8]: human, pH 7.4.
Description: Wushanicaritin was incubated with HLM, HIM and expressed UGTs enzymes to determine the rates of glucuronidation as published previously [12, 23, 31]. Briefly, the incubation mixture mainly contained 50 mM Tris-hydrochloric acid buffer (pH 7.4), 0.88 mM MgCl2, 22 µg/mL alamethicin, 4.4 mM saccharolactone and 3.5 mM UDPGA [32]. The reaction was terminated by adding ice-cold acetonitrile. The samples were vortexed and centrifuged at 13,800× g for 10 min. The supernatant was subjected to UPLC/Q-TOF-MS (Waters Corporation, Manchester, UK) analysis. […] Similarly, wushanicaritin was incubated with DLM, RLM, MkLM, RaLM and GpLM in the same way as for HLM. All experiments were performed in triplicate. Preliminary experiments were performed to ensure that the rates of glucuronidation were determined under linear conditions with respect to the incubation time and protein concentration.
Serial concentrations of wushanicaritin (0.156–20 µM) were incubated with HLM, HIM and expressed UGTs enzymes to determine wushanicaritin glucuronidation rates. […] Appropriate models were selected by visual inspection of the Eadie–Hofstee plot [34]. Model fitting and parameter estimation were performed by GraphPad Prism V5 software (GraphPad Software, Inc., San Diego, CA, USA).
V is the formation rate of the product. Vmax is the maximal velocity. Km is the Michaelis constant, and [S] is the substrate. […]
The next data set concerns the target T2, expressed human UGT1A1 (Homo sapiens, UniProt P22309).
T2 sequence (P22309 26-533): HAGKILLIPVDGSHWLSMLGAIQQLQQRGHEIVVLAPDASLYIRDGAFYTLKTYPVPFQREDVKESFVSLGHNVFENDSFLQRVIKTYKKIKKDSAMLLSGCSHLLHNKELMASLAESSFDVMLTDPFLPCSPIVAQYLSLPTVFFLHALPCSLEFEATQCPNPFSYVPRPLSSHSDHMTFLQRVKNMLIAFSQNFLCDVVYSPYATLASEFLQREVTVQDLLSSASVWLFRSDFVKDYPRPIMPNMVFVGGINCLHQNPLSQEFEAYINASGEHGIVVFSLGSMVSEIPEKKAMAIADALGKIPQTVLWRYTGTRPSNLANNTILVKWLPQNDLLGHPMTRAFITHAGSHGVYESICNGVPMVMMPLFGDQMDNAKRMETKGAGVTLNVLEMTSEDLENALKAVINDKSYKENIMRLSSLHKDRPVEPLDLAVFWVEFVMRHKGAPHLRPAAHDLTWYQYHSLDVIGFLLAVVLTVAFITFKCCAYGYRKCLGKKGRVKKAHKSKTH
Briefly: Glucuronidation by expressed UGT1A1. The procedure: as §1, §2, §3, §4

Data set [9] in a line: Glucuronidation by monkey liver microsomes (MkLM). The conditions noted are these: for Km: monkey, liver microsomes, read-out: Km or S50; for Ki: substrate inhibition constant. It is filed as in vitro ADME. The procedure:
as §1, §3

Substrate in data set [10]: CC(C)c1cccc(C(C)C)c1O
Kind of data set: not read. The conditions noted are these: other: probe substrate glucuronidation; UGT1A9; pH 7.4.

Substrate in data set [11]: COc1ccc(-c2oc3c(CCC(C)(C)O)c(O)cc(O)c3c(=O)c2O)cc1
Description: Briefly, the incubation mixture mainly contained 50 mM Tris-hydrochloric acid buffer (pH 7.4), 0.88 mM MgCl2, 22 µg/mL alamethicin, 4.4 mM saccharolactone and 3.5 mM UDPGA [32]. The reaction was terminated by adding ice-cold acetonitrile. […] The supernatant was subjected to UPLC/Q-TOF-MS (Waters Corporation, Manchester, UK) analysis. […] All experiments were performed in triplicate. Preliminary experiments were performed to ensure that the rates of glucuronidation were determined under linear conditions with respect to the incubation time and protein concentration.
Appropriate models were selected by visual inspection of the Eadie–Hofstee plot [34]. Model fitting and parameter estimation were performed by GraphPad Prism V5 software (GraphPad Software, Inc., San Diego, CA, USA).
V is the formation rate of the product. Vmax is the maximal velocity. Km is the Michaelis constant, and [S] is the substrate. Ksi is the substrate inhibition constant. The intrinsic clearance (CLint) was derived by Vmax/Km for the Michaelis–Menten and substrate inhibition models [12]. (1) V=Vmax ×[S]/Km+[S] (2) V=Vmax ×[S]/Km + [S](1+[S]/Ksi)
The contribution of individual expressed UGT enzymes to wushanicaritin glucuronidation in HLM was evaluated by the relative activity factor (RAF) approach as described in previous studies [2, 12]. The relative activity factor was defined as the activity ratio of HLM to an expressed UGT enzyme (Supersome) toward a probe substrate for this enzyme using Equation (3). The relative amount of wushanicaritin glucuronidation in HLM attributed to an expressed UGT enzyme was estimated by multiplying the glucuronidation activity (i.e., the intrinsic clearance) derived with this enzyme by the corresponding RAF. […] The contributions of individual UGT enzyme were calculated according to Equation (4). (3) RAF=CLint{probe,pHLM}/CLint{probe,Supersome} (4) Contribution of UGTs=CLint(wushanica ritin,UGTs)/CLint(wushanica ritin,pHLM)×RAF
Kind of data set: not read. The conditions noted are these: UGT1A9, pH 7.4.

Where [12] appears, read: probe substrate glucuronidation.
[13] abbreviates: formation of G1 (3-O-glucuronide).
The mark [14] stands for this setting: formation of G2 (7-O-glucuronide).
Where [15] appears, read: pH 7.4, formation of G1 (3-O-glucuronide).
The mark [16] stands for this setting: pH 7.4, formation of G2 (7-O-glucuronide).
Where [17] appears, read: other: formation of G1 (3-O-glucuronide).
Setting [18] is: other: formation of G2 (7-O-glucuronide).

Values joined by “and” are separate entries in the source; they are usually repeats but may differ in a detail not shown here. Equal entries are not always repeated.

As usually defined, the Km is the substrate concentration at which the rate is half of its maximum. The term microsomal CLint denotes the rate of metabolic loss divided by the concentration. The term Vmax denotes the top rate of the reaction or transport when substrate is in excess. `Cc1cn([C@H]2C[C@H](N=[N+]=[N-])[C@@H](CO)O2)c(=O)[nH]c1=O` [AZT, zidovudine, reference compound]: the Km on UGT2B7 turned out to be 1600 ± 121 µM; in data set [1] (human, pooled liver microsomes, probe substrate glucuronidation, read-out: Km), 4360 ± 341 µM. Moreover, the microsomal CLint at UGT2B7 (expressed UGT2B7 (Supersome)) was 0.26 ± 0.02 µL/min/mg; in [1] (human, pooled liver microsomes, probe substrate glucuronidation), 0.27 ± 0.02 µL/min/mg. Further, the Vmax in data set [1] (setting [12]) was found to be 1.18 ± 0.53 nmol/min/mg.
What is called IC50 is the concentration that inhibits the measured activity by half. With `COc1ccc(-c2oc3c(CCC(C)(C)O)c(O)cc(O)c3c(=O)c2O)cc1` [wushanicaritin], the Vmax in data set [2] (setting [13]) was 0.11 ± 0.004 nmol/min/mg; in [2] (setting [14]), 0.56 ± 0.02 nmol/min/mg; in [3] (setting [13]), 0.34 ± 0.01 nmol/min/mg; in data set [3] (setting [14]), 0.37 ± 0.009 nmol/min/mg; in data set [4] (setting [13]), 0.74 nmol/min/mg and 0.74 ± 0.05 nmol/min/mg; in data set [4] (setting [14]), 1.34 nmol/min/mg and 1.34 ± 0.10 nmol/min/mg. Further, the Vmax in data set [5] (setting [13]) is 0.05 ± 0.002 nmol/min/mg; in data set [5] (setting [14]) it was 1.43 ± 0.06 nmol/min/mg; in data set [7] (setting [13]), 0.19 ± 0.01 nmol/min/mg; in data set [7] (setting [14]) it was 0.32 ± 0.02 nmol/min/mg; in data set [9] (setting [13]), 0.22 ± 0.02 nmol/min/mg; in data set [9] (setting [14]), 0.21 ± 0.008 nmol/min/mg. Further, the Vmax in [1] (setting [13]) was 1.34 nmol/min/mg and 1.34 ± 0.08 nmol/min/mg; in data set [1] (setting [14]), 0.35 nmol/min/mg and 0.35 ± 0.01 nmol/min/mg. Also, the Km was 2.22 ± 0.26 µM in data set [2] (setting [15]); 3.29 ± 0.39 µM in data set [2] (setting [16]); 0.66 ± 0.06 µM in [3] (setting [15]); 0.45 ± 0.03 µM in data set [3] (setting [16]); 4.24 ± 0.75 µM in [4] (setting [15]); 5.91 ± 1.1 µM in [4] (setting [16]). For the same molecule, the Km in [5] (setting [15]) stood at 2.53 ± 0.3 µM; in data set [5] (setting [16]), 0.93 ± 0.06 µM; in data set [7] (setting [15]) it was 1.11 ± 0.16 µM; in data set [7] (setting [16]) it was 1.17 ± 0.13 µM; in data set [9] (setting [15]) it was 1.58 ± 0.25 µM; in data set [9] (setting [16]), 0.94 ± 0.08 µM. Besides, the Michaelis-Menten constant (Km) worked out at 1.07 ± 0.13 µM in data set [1] (human, pooled liver microsomes, pH 7.4, formation of G1 (3-O-glucuronide), read-out: Km or S50) and 0.5 ± 0.08 µM in data set [1] (human, pooled liver microsomes, pH 7.4, formation of G2 (7-O-glucuronide), read-out: Km or S50). The Ki in [3] (setting [13]) was determined as 37.11 ± 5.82 µM; in [3] (setting [14]), 44.22 ± 5.42 µM; in data set [7] (setting [13]), 29.09 ± 6.58 µM; in data set [7] (setting [14]) it was 44.14 ± 9.09 µM; on expressed human UGT1A1 (substrate inhibition constant, formation of G1 (3-O-glucuronide), UGT1A1), 17.150 ± 4.478 µM; in data set [9] (setting [13]) it was 11.57 ± 2.15 µM. Also, the Ki is 36.23 ± 5.13 µM in data set [9] (setting [14]); 32.99 µM and 32.990 ± 6.717 µM in data set [1] (substrate inhibition constant, formation of G1 (3-O-glucuronide)). Besides, in [6], the IC50 was 35.3 µM. Moreover, in data set [8] (dog, rat, monkey, rabbit, guinea pig), the “species difference in hepatic glucuronidation” value is “up to 60.0 fold”. In addition, in data set [8], the “variability of kinetic parameters, rat versus humans” value is recorded as no more than 2.5 fold.
With `C[C@]12CC[C@@H]3c4ccc(O)cc4CC[C@H]3[C@@H]1CC[C@@H]2O` [β-estradiol, reference compound], the Km on expressed human UGT1A1 was 25.3 ± 4.28 µM. Moreover, in [1] (setting [12]), the Vmax was 0.19 ± 0.09 nmol/min/mg.

B1: expressed human UGT1A9 (Homo sapiens) (protein)
chain: GKLLVVPMDGSHWFTMRSVVEKLILRGHEVVVVMPEVSWQLGRSLNCTVKTYSTSYTLEDLDREFKAFAHAQWKAQVRSIYSLLMGSYNDIFDLFFSNCRSLFKDKKLVEYLKESSFDAVFLDPFDNCGLIVAKYFSLPSVVFARGILCHYLEEGAQCPAPLSYVPRILLGFSDAMTFKERVRNHIMHLEEHLLCHRFFKNALEIASEILQTPVTEYDLYSHTSIWLLRTDFVLDYPKPVMPNMIFIGGINCHQGKPLPMEFEAYINASGEHGIVVFSLGSMVSEIPEKKAMAIADALGKIPQTVLWRYTGTRPSNLANNTILVKWLPQNDLLGHPMTRAFITHAGSHGVYESICNGVPMVMMPLFGDQMDNAKRMETKGAGVTLNVLEMTSEDLENALKAVINDKSYKENIMRLSSLHKDRPVEPLDLAVFWVEFVMRHKGAPHLRPAAHDLTWYQYHSLDVIGFLLAVVLTVAFITFKCCAYGYRKCLGKKGRVKKAHKSKTH
With B1, the Km in “not read [10]” was determined as 45.91 ± 5.91 µM. Also, in the data set “not read [11]” (setting [17]), the K0.5 was 0.32 ± 0.03 µM, the maximum rate (Vmax) came out at 8e-05 µmol/min/mg and the Vmax/Km was found to be 240 µL/min/mg. For the same molecule, in “not read [11]” (setting [18]), the K0.5 was 0.39 ± 0.06 µM, the Vmax is 0.00011 µmol/min/mg and the Vmax/Km was determined as 270 µL/min/mg.
